Test results: patent EP1795539B1, “Cell penetrating peptides for intracellular delivery of molecules” (Centre National de la Recherche Scientifique, priority 2005, dated 2007)
Like-named read-outs stand apart in the source and are kept apart here. Peptide text beside a SMILES is read from it.

Legend:
[1] = tested on: different cell lines; format: cell-based; conditions: 12 h
Description: • Figure 1 : Schematic representation of CADY cellular uptake mechanism. • Figure 2 : Structure of CADY in the interaction with the membrane. • (A) modelisation • (B) CD experiments - Far UV CD spectra were recorded on a JASCO J-810 spectro-polarimeter (JASCO Corporation, Tokyo, Japan) using a quartz cuvette with a path length of 1 mm. Spectra were corrected from the baseline buffer spectrum and smoothed with the JASCO software. Peptides were dissolved to a fixed concentration of 50 µM in water or in PBS. CD spectra were collected at 23°C and each spectrum represents the average of 4 scans. […] Binding of cargoes to CADY was monitored by steady state fluorescence spectroscopy. The intrinsic fluorescence associated to the Trp residues of CADY was used as sensitive probe. The fluorescence of CADY is centered at 340 nm upon excitation at 290 nm. […] The knockdown of the GAPDH at the protein level was quantified 48 hrs after transfection by Western blot analysis using polyclonal antibody (Ref. ABCAM GAPDH antibody - ab9385 rabbit polyclonal). […] The size of the particle was determined by light scattering and the knock down of GAPDH protein was quantified by Western blot analysis. • (B) role of the endosomal pathway on the efficiency of CADY-mediated siRNA delivery. […]

[2] = tested on: HS-68 and Hela cells; experiment: Toxicity of CADY variants, MTT cell viability assay (Table 1); format: cell-based
Description: The toxicity of CADY peptides has been investigated on different cell lines. Cells were incubated in the presence of increasing concentrations of CADY (from 0.1 µM to 1 mM) for 12 hrs and cell viability was estimated using MTT assay.

[3] = tested on: 5PC3 or Human H1299 adenocarcinoma cells; experiment: Intravenous injection of carrier/anti-cyclin B1 siRNA complexes, tumor growth; format: in vivo, NCR nude mice; conditions: one intravenous injection, siRNA 10 µg, ratio 1:20

EC50 [1]	SMILES	EC50 ([2]; free peptide, MTT, read-out: free EC50)	EC50 ([2]; 12 h)	tumor growth [3]
500 µM	CC(=O)NCC(=O)N[C@@H](CC(C)C)C(=O)N[C@@H](Cc1c[nH]c2ccccc12)C(=O)N[C@@H](CCCNC(=N)N)C(=O)N[C@@H](C)C(=O)N[C@@H](CC(C)C)C(=O)N[C@@H](Cc1c[nH]c2ccccc12)C(=O)N[C@@H](CCCNC(=N)N)C(=O)N[C@@H](CC(C)C)C(=O)N[C@@H](CC(C)C)C(=O)N[C@@H](CCCNC(=N)N)C(=O)N[C@@H](CO)C(=O)N[C@@H](CC(C)C)C(=O)N[C@@H](Cc1c[nH]c2ccccc12)C(=O)N[C@@H](CCCNC(=N)N)C(=O)N[C@@H](CC(C)C)C(=O)N[C@@H](CC(C)C)C(=O)N[C@@H](Cc1c[nH]c2ccccc12)C(=O)N[C@@H](CCCCN)C(=O)N[C@@H](C)C(=O)NCCS [CADY-1] (HELM PEPTIDE1{[ac].G.L.W.R.A.L.W.R.L.L.R.S.L.W.R.L.L.W.K.A.[SCCN[*:1]]}$$$$V2.0)	400 µM	–	–
–	CC(C)CCC[C@@H](C)[C@H]1CC[C@H]2[C@@H]3CC=C4C[C@@H](OC(=O)NCC(=O)N[C@@H](CC(C)C)C(=O)N[C@@H](Cc5c[nH]c6ccccc56)C(=O)N[C@@H](CCCNC(=N)N)C(=O)N[C@@H](C)C(=O)N[C@@H](CC(C)C)C(=O)N[C@@H](Cc5c[nH]c6ccccc56)C(=O)N[C@@H](CCCNC(=N)N)C(=O)N[C@@H](CC(C)C)C(=O)N[C@@H](CC(C)C)C(=O)N[C@@H](CCCNC(=N)N)C(=O)N[C@@H](CO)C(=O)N[C@@H](CC(C)C)C(=O)N[C@@H](Cc5c[nH]c6ccccc56)C(=O)N[C@@H](CCCNC(=N)N)C(=O)N[C@@H](CC(C)C)C(=O)N[C@@H](CC(C)C)C(=O)N[C@@H](Cc5c[nH]c6ccccc56)C(=O)N[C@@H](CCCCN)C(=O)N[C@@H](C)C(=O)NCCS)CC[C@]4(C)[C@H]3CC[C@]12C [CADY-S] (HELM PEPTIDE1{[CC(C)CCC[C@@H](C)[C@H]1CC[C@H]2[C@@H]3CC=C4C[C@@H](OC(=O)[*:2])CC[C@]4(C)[C@H]3CC[C@]12C].G.L.W.R.A.L.W.R.L.L.R.S.L.W.R.L.L.W.K.A.[SCCN[*:1]]}$$$$V2.0; N-terminus assumed)	–	200 µM	fully abolish the tumor growth
